Data set [1] can be described thus: In vitro dissolution or release testing of products with different trilostane particle sizes. It counts as physicochemical. The conditions noted are these: products containing batches of trilostane of differing particle sizes.
The nature of data set [2]: Bioavailability Test: plasma levels after oral 60 mg capsules of different trilostane particle size. The data set is classed as in vivo, volunteers. The following applies: for AUC at 24 h: human, plasma, po, 120 mg, 120 mg trilostane (2 x 60 mg capsules) oral, empty stomach, eight volunteers, read-out: Trilostane AUCo^24. As to the method:
60 mg capsules were prepared as described in Example 1 by wet granulation techniques using batches of trilostane comprising (i) particles having a mean equivalent sphere volume diameter of about 10 µm (at least about 95% of the particles having a particle size of less than about 50 pm), (ii) particles of mean equivalent sphere volume diameter of about 45 µm, and (iii) particles of mean equivalent sphere volume diameter greater than 100 pm.
In a three part double blind cross-over study on eight volunteers, each volunteer received a dosage of 120 mg of trilostane (2 x 60 mg capsules) on an empty stomach with 50 ml of tap water. Blood samples (8 ml) were taken pre-medication and at 0.5, 1.0, 2.0, 3.0, 4.0, 5.0, 6.0, 8.0, 10.0 and 24.0 hours and assayed for plasma levels of trilostane and trilostane metabolite. Plasma concentrations were processed by a computer programme giving maximum concentration in plasma (Cmax) and time taken to reach this maximum (Tmax) by inspection. Values for the area under the curve of concentration against time over the time span 0 to t ( [formula] ―where t is time) were then calculated using the trapezoid rule and statistical analysis was carried out using the Students paired t-test.
The following Table I sets out [formula] values (mg.ml^-1.h) for trilostane and 17-keto metabolite.

The structures appear in SMILES notation. Where two headings read alike, the source gives them in different places.

For `C[C@]12CC[C@H]3[C@@H](CC[C@@]45O[C@@H]4C(O)=C(C#N)C[C@]35C)[C@@H]1CC[C@@H]2O` [Trilostane, 2a-cyano-4a,5a-epoxyandrostan-17a-ol-3-one], the “dissolution or release properties” value in data set [1] was “could not be differentiated”. Also, the figures for the “ratio of Metabolite AUC to Trilostane AUCo^4” value in data set [2] (10 µm material), in data set [2] (45 µm material) and in data set [2] (100 µm material) were 3.1, 4.5 and 6.5, respectively. In addition, in data set [2] (24 hours after 120 mg oral, in most cases), the “plasma levels at 24 hours” value was “could not be detected”. Further, the figures for the AUC at 24 h in data set [2] (particle size 10 µm), in data set [2] (particle size 45 µm) and in data set [2] (particle size 100 µm) were 1600 µg·h/mL, 600 µg·h/mL and 200 µg·h/mL, respectively.
